Laboratory results: patent US20260294915A1, “COMBINATION THERAPY COMPRISING A MAT2A INHIBITOR AND A TOPOISOMERASE INHIBITOR, A SPLICING INHIBITOR SULFONAMIDE, OR A KIF18 INHIBITOR” (IDEAYA BIOSCIENCES, INC., priority 2023, published 2026)
Where a name gives a salt, the structure may show the parent alone.

Columns and labels:
[1] = test system: UMUC11; assay: 10-day proliferation (CTG), equimolar Compound A + SPLAM (Example 4); type: cell-based; details: single agent or 1:1 combo
Method: (§1) A 10-day proliferation assay was performed in a panel of 5 MTAP-deficient and 2 wild type non-small cell lung and bladder cancer cell lines. Optimal cell seeding for all cell lines was determined by assessing the growth over a range of seeding densities in a 384-well format to identify conditions that permitted proliferation for 10 days. Cells were then plated at the optimal seeding density and treated with 20-point, two-fold dilution series of Compound A, the splicing inhibitor sulfonamide (SPLAM), or an equimolar combination of Compound A and the SPLAM. Combinations tested included Compound A in combination with four structurally different SPLAMs. Concentrations tested for Compound A and each SPLAM alone or in combination ranged from 0.04 nM to 20,000 nM. A plate of cells was harvested at the time of compound addition to quantify the number of cells at the start of the combination (T0). For cell quantification, the harvested cells were lysed with Promega CellTiter-Glo (CTG) reagent according to the manufacturer's protocol and the chemiluminescent signal was detected on a Synergy Neo plate reader. CTG estimates cell number through detection of cellular ATP levels. Cells were incubated with the drug combinations at 37° C. with 5% CO2 for 10 days. Cells were then lysed with CTG and the chemiluminescent signal was measured.
(§2) CTG values obtained after the 10-day treatment were background subtracted and expressed as a percent of the T0 value. Data were plotted against compound concentration and fit with a four-parameter equation to generate dose response curves for each single agent and the equimolar combination. Growth ICx (gICx) values ranging from gIC30 to gIC100 were interpolated from the fitted curves. Synergistic growth inhibition was assessed by determination of Combination Index (CI) values at these various points across the titration using the mutually non-exclusive equation [Chou, 1983; Chou, 1981] shown below where A equals the gICx value of Compound A, B equals the gICx value of the SPLAM, and A+B or B+A equals the gICx value of the equimolar combination. A Combination Index value less than 1.0 was considered synergistic.

[2] = test system: UMUC5; assay: as above; type: cell-based; details: single agent or 1:1 combo
Method: as §1, §2

[3] = test system: RT112/84; assay: as above; type: cell-based; details: single agent or 1:1 combo
Method: as §1, §2

[4] = test system: SW900; assay: as above; type: cell-based; details: single agent or 1:1 combo
Method: as §1, §2

[5] = test system: NCI-H838; assay: as above; type: cell-based; details: single agent or 1:1 combo
Method: as §1, §2

[6] = test system: TCCSUP; assay: as above; type: cell-based; details: single agent or 1:1 combo
Method: as §1, §2

[7] = test system: NCI-H520; assay: as above; type: cell-based; details: single agent or 1:1 combo
Method: as §1, §2

[8] = test system: LMSU (RCB1062) human gastric tumor cell-derived xenograft (CDX) models; assay: Anti-tumor activity in LMSU gastric mouse xenograft (CDX) model (Example 9); type: in vivo; details: 3 days on/4 days holiday; for Day 11 TV (mean): initial TV 185, vehicle 1018
Method: (§3) All mouse studies were approved by the Institutional Animal Care and Use Committee (IACUC) based on guidelines from the National Institutes of Health (NIH). Mice were maintained under pathogen-free conditions, and food and water were provided ad libitum.
(§4) The anti-tumor effect of Compound A and irinotecan hydrochloride as single-agents or in combination was assessed in the LMSU (RCB1062) human gastric tumor cell-derived xenograft (CDX) models. LMSU was expanded in HamF10 with 10% fetal bovine serum. Cells were free of mycoplasma and authenticated by STR profiling, and ten million cells in log growth phase were resuspended in Hanks Balanced Salt Solution containing 50% Matrigel and implanted subcutaneously into the flank of each recipient female Crl:NU-Foxn1nu mouse. Mice were housed in microisolator cages with corn cob bedding with additional enrichment consisting of sterile nesting material (Innovive) and Bio-huts (Bio-Serv). Water (Innovive) and diet (Teklad Global 19% Protein Extruded Diet 2919, Irradiated) were provided ad libitum. The environment was maintained on a 12-hour light cycle at approximately 68-72° F. and 40-60% relative humidity.
(§5) Tumor Volume (TV) was calculated using the following formula: TV (mm^3)=(width×width×length)/2. Tumor growth inhibition (TGI) was calculated by [(TV controlfinal−TV treatedfinal)/(TV controlfinal−TV controlinitial)×100]. TV was analyzed for statistical significance utilizing GraphPad Prism version 10.2.2. Repeated Measures 2-Way ANOVA with Dunnet's Multiple Comparisons was utilized, and P-values were derived from data collected on the date of Vehicle group termination and were considered statistically significant if less than 0.05.
(§6) Mean tumor volume at dosing start was approximately 185 mm^3, with seven mice randomized to each treatment group. Mice were dosed orally, once per day, with Vehicle, Compound A at 10 mg/kg, or dosed for 3 consecutive days followed by 4 days holiday by intraperitoneal (IP) injection of Compound B at 5 mg/kg or 10 mg/kg, or combination of Compound A and Compound B. The vehicle group was a combination of Vehicle A (for Compound A, 0.5% 400 cps methylcellulose with 0.5% Tween-80 in sterile water) and Vehicle B (for irinotecan hydrochloride, Saline).

[9] = test system: MKN45 (RCB1001) human gastric tumor cell-derived xenograft (CDX) model; assay: Anti-tumor activity in MKN45 gastric mouse xenograft (CDX) model (Example 8); type: in vivo; details: 3 days on/4 days holiday
Method: as §3
as §4, with “MKN45 (RCB1001)” for “LMSU (RCB1062)”, “model. MKN45” for “models. LMSU”, “RPMI1640” for “HamF10”
as §5
as §6, with “190” for “185”, “six” for “seven”

[10] = test system: RT112/84 human bladder tumor cell-derived xenograft (CDX) model; assay: Anti-tumor activity in RT112/84 mouse xenograft (CDX) model (Example 7); type: in vivo
Method: as §3
The anti-tumor effect of Compound A and irinotecan hydrochloride as single-agents or in combination was assessed in the RT112/84 human bladder tumor cell-derived xenograft (CDX) model. Cells were expanded in RPMI-1640 (Gibco, Catalog Number 11875093) with 10% fetal bovine serum. These cells were free of mycoplasma and authenticated by STR profiling. Five million cells in log growth phase were resuspended in Hanks Balanced Salt Solution containing 50% Matrigel and implanted subcutaneously into the flank of each recipient female Crl:NU-Foxnlnu mouse. Mice were housed in microisolator cages with corn cob bedding with additional enrichment consisting of sterile nesting material (Innovive) and Bio-huts (Bio-Serv). Water (Innovive) and diet (Teklad Global 19% Protein Extruded Diet 2919, Irradiated) were provided ad libitum. The environment was maintained on a 12-hour light cycle at approximately 68-72° F. and 40-60% relative humidity.
as §5, with “10.0.3.” for “10.2.2.”, “Tukey's” for “Dunnet's”, “Day 14 (date” for “the date”, “termination)” for “termination”, “0.05. Tumor regression was calculated by using the percent change in tumor volume from the final tumor volume measurement from Day 73 when compared to the initial tumor volume from Day 1. Tumor regression was defined as reduced TV on Day 73 compared to Day 1. Tumor regression rate was defined as the percentage of animals per group with tumor regression.” for “0.05.”
as §6, with “249” for “185”, “ten” for “seven”, “5” for “5 mg/kg or 10”

[11] = irinotecan hydrochloride 5 mg/kg IP
[12] = irinotecan hydrochloride 10 mg/kg IP
[13] = irinotecan hydrochloride 5 mg/kg IP, 3 days on/4 days holiday

Question: What does the source list for `O=C(NS(=O)(=O)c1ccc(Br)s1)c1ccc(Cl)cc1Cl` [Tasisulam, N-((5-bromothiophen-2-yl)sulfonyl)-2,4-dichlorobenzamide]?
Answer: gIC30 [1]: 17.77 µM; gIC40 [1]: 18.358 µM; gIC60 [1]: 19.349 µM; gIC70 [1]: 19.781 µM; gIC100 [1]: 20 µM; IC80 ([1]; 14400 min, read-out: gIC80): 20 µM; IC90 ([1]; 14400 min, read-out: gIC90): 20 µM; IC50 ([1]; read-out: gIC50): 18.9 µM; gIC30 [2]: 16.121 µM; gIC40 [2]: 16.834 µM; gIC60 [2]: 18.053 µM; gIC70 [2]: 18.592 µM; gIC100 [2]: 20 µM; IC80 ([2]; 14400 min, read-out: gIC80): 19.1 µM; IC90 ([2]; 14400 min, read-out: gIC90): 19.6 µM; IC50 ([2]; read-out: gIC50): 17.5 µM; IC50 ([3]; Homo sapiens, RT112/84, read-out: gIC50): 20 µM; gIC30 [3]: 20 µM; gIC40 [3]: 20 µM; gIC60 [3]: 20 µM; gIC70 [3]: 20 µM; gIC100 [3]: 20 µM; IC80 ([3]; 14400 min, read-out: gIC80): 20 µM; IC90 ([3]; 14400 min, read-out: gIC90): 20 µM; IC50 ([4]; Homo sapiens, SW900, read-out: gIC50): 20 µM; gIC30 [4]: 20 µM; gIC40 [4]: 20 µM; gIC60 [4]: 20 µM; gIC70 [4]: 20 µM; gIC100 [4]: 20 µM; IC80 ([4]; 14400 min, read-out: gIC80): 20 µM; IC90 ([4]; 14400 min, read-out: gIC90): 20 µM; IC50 ([5]; Homo sapiens, NCI-H838, read-out: gIC50): 4.93 µM; gIC30 [5]: 7.419 µM; gIC40 [5]: 4.551 µM; gIC60 [5]: 5.372 µM; gIC70 [5]: 5.923 µM; gIC100 [5]: 20 µM; IC80 ([5]; 14400 min, read-out: gIC80): 6.69 µM; IC90 ([5]; 14400 min, read-out: gIC90): 7.97 µM; IC50 ([6]; Homo sapiens, TCC-SUP, read-out: gIC50): 20 µM; gIC30 [6]: 20 µM; gIC40 [6]: 20 µM; gIC60 [6]: 20 µM; gIC70 [6]: 20 µM; gIC100 [6]: 20 µM; IC80 ([6]; 14400 min, read-out: gIC80): 20 µM; IC90 ([6]; 14400 min, read-out: gIC90): 20 µM; IC50 ([7]; Homo sapiens, NCI-H520, read-out: gIC50): 11.2 µM; gIC30 [7]: 9.551 µM; gIC40 [7]: 10.354 µM; gIC60 [7]: 12.274 µM; gIC70 [7]: 13.716 µM; gIC100 [7]: 20 µM; IC80 ([7]; 14400 min, read-out: gIC80): 16.4 µM; IC90 ([7]; 14400 min, read-out: gIC90): 12 µM

Question: Which “Day 11 TGI” value [8, 11] does the source give for `CCc1c2c(nc3ccc(OC(=O)N4CCC(N5CCCCC5)CC4)cc13)-c1cc3c(c(=O)n1C2)COC(=O)[C@]3(O)CC` [irinotecan hydrochloride] here?
Answer: 42%

Question: And the “Tumor Regression Rate on Day 11” value [8, 11]?
Answer: 0%

Question: And the “Day 11 TV (mean)” value [8, 11]?
Answer: 671 mm^3

Question: And the “Day 11 TGI” value [8, 12]?
Answer: 80%

Question: And the “Tumor Regression Rate on Day 11” value [8, 12]?
Answer: 14%

Question: What about the “Day 11 TV (mean)” value [8, 12] of the same compound?
Answer: 353 mm^3

Question: And the “Day 25 TGI” value [9, 11]?
Answer: 49%

Question: What about the “Tumor Regression Rate on Day 25” value [9, 11] of the same compound?
Answer: 0%

Question: And the “Day 25 TV (mean)” value ([9]; irinotecan hydrochloride 5 mg/kg IP, initial TV 190, vehicle 1396)?
Answer: 807 mm^3

Question: What about the “Day 25 TGI” value [9, 12] of the same compound?
Answer: 85%

Question: And the “Tumor Regression Rate on Day 25” value [9, 12]?
Answer: 17%

Question: And the “Day 25 TV (mean)” value ([9]; irinotecan hydrochloride 10 mg/kg IP, initial TV 192, vehicle 1396)?
Answer: 369 mm^3

Question: What about the TGI ([10]; Compound A 10 mg/kg oral once per day, irinotecan 5 mg/kg IP 3 days on/4 days off) of the same compound?
Answer: 83%

Question: What about the “response rate (mice with tumor regressions)” value ([10]; day 73, Compound A 10 mg/kg oral, irinotecan 5 mg/kg IP) of the same compound?
Answer: 30%

Question: And the “Day 14 TGI” value [10, 13]?
Answer: 83%

Question: What about the “Tumor Regression Rate on Day 73” value [10, 13] of the same compound?
Answer: 30%

Question: What about the “Day 14 TV (mean)” value ([10]; irinotecan hydrochloride 5 mg/kg IP, 3 days on/4 days holiday, initial TV 249, vehicle 1069) of the same compound?
Answer: 387 mm^3
